Assay results: US12077503B2, “Substituted cyclic amides and their use as herbicides” (FMC CORPORATION, priority 2015, dated 2024)

Columns and labels:
Type in all cases: in vivo
[1] = test system: Kochia (Kochia scoparia); assay: Test A preemergence; settings: Bassia scoparia, pre-emergence, 240 h, 0 to 100 scale (0 no effect, 100 complete control), read-out: Plant response rating, Kochia
Summary of the method: (§1)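 Seeded soil received test chemicals as a preemergence directed spray, and seedlings at one to two leaves, 2–10 cm tall, received them postemergence, in a non-phytotoxic, surfactant-containing solvent mixture. Pots were held in a greenhouse for approximately 10 d, then rated for injury from 0, no effect, to 100, complete control.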

[2] = test system: barnyardgrass (Echinochloa crus-galli); assay: Test A preemergence; settings: Echinochloa crus-galli, pre-emergence, 240 h, 0 to 100 scale (0 no effect, 100 complete control), read-out: Plant response rating, Barnyardgrass
Summary of the method: as §1

[3] = test system: giant foxtail (Setaria faberii); assay: Test A preemergence; settings: Setaria faberi, pre-emergence, 240 h, 0 to 100 scale (0 no effect, 100 complete control), read-out: Plant response rating, Foxtail, Giant
Summary of the method: as §1

[4] = test system: pigweed (Amaranthus retroflexus); assay: Test A preemergence; settings: Amaranthus retroflexus, pre-emergence, 240 h, 0 to 100 scale (0 no effect, 100 complete control), read-out: Plant response rating, Pigweed
[5] = test system: ragweed (common ragweed, Ambrosia elatior); assay: Test A preemergence; settings: Ambrosia artemisiifolia, pre-emergence, 240 h, 0 to 100 scale (0 no effect, 100 complete control), read-out: Plant response rating, Ragweed
Summary of the method: as §1

[6] = test system: ryegrass, Italian (Italian ryegrass, Lolium multiflorum); assay: Test A preemergence; settings: Lolium multiflorum, pre-emergence, 240 h, 0 to 100 scale (0 no effect, 100 complete control), read-out: Plant response rating, Ryegrass, Italian
Summary of the method: as §1

[7] = test system: Galium (catchweed bedstraw, Galium aparine); assay: Test A postemergence; settings: Galium, post-emergence, 240 h, Postemergence
Summary of the method: as §1

[8] = test system: Kochia (Kochia scoparia); assay: Test A postemergence; settings: Bassia scoparia, post-emergence, 240 h, Postemergence
Summary of the method: as §1

[9] = test system: barnyardgrass (Echinochloa crus-galli); assay: Test A postemergence; settings: Echinochloa crus-galli, post-emergence, 240 h, Postemergence
Summary of the method: as §1

[10] = test system: blackgrass (Alopecurus myosuroides); assay: Test A postemergence; settings: Alopecurus myosuroides, post-emergence, 240 h, Postemergence
Summary of the method: as §1

[11] = test system: corn (Zea mays); assay: Test A postemergence; settings: Zea mays, post-emergence, 240 h, Postemergence
Summary of the method: as §1

[12] = test system: giant foxtail (Setaria faberii); assay: Test A postemergence; settings: Setaria faberi, post-emergence, 240 h, Postemergence
Summary of the method: as §1

[13] = test system: pigweed (Amaranthus retroflexus); assay: Test A postemergence; settings: Amaranthus retroflexus, post-emergence, 240 h, Postemergence
Summary of the method: as §1

[14] = test system: ragweed (common ragweed, Ambrosia elatior); assay: Test A postemergence; settings: Ambrosia artemisiifolia, post-emergence, 240 h, Postemergence
Summary of the method: as §1

[15] = test system: ryegrass, Italian (Italian ryegrass, Lolium multiflorum); assay: Test A postemergence; settings: Lolium multiflorum, post-emergence, 240 h, Postemergence
Summary of the method: as §1

[16] = test system: wheat (Triticum aestivum); assay: Test A postemergence; settings: Triticum aestivum, post-emergence, 240 h, Postemergence
Summary of the method: as §1

## CN1C[C@H](c2ccc(C(F)(F)F)cc2)[C@@H](C(=O)Nc2ccccc2C#N)C1=O [Compound 1379]
[1]; 500 g ai/ha, preemergence
  pest or weed control at 500 g/ha: 90%
[1]; Preemergence, 125 g ai/ha
  pest or weed control at 125 g/ha: 90%
[2]; 500 g ai/ha, preemergence
  pest or weed control at 500 g/ha: 100%
[2]; Preemergence, 125 g ai/ha
  pest or weed control at 125 g/ha: 100%
[3]; 500 g ai/ha, preemergence
  pest or weed control at 500 g/ha: 100%
[3]; Preemergence, 125 g ai/ha
  pest or weed control at 125 g/ha: 100%
[4]; 500 g ai/ha, preemergence
  pest or weed control at 500 g/ha: 90%
[4]; Preemergence, 125 g ai/ha
  pest or weed control at 125 g/ha: 80%
[5]; 500 g ai/ha, preemergence
  pest or weed control at 500 g/ha: 90%
[5]; Preemergence, 125 g ai/ha
  pest or weed control at 125 g/ha: 70%
[6]; 500 g ai/ha, preemergence
  pest or weed control at 500 g/ha: 50%
[6]; Preemergence, 125 g ai/ha
  pest or weed control at 125 g/ha: 20%
[7]; 125 g ai/ha, visual rating about 10 d after treatment, read-out: Galium plant response rating (0 to 100 scale)
  pest or weed control at 125 g/ha: 40%
[7]; 500 g ai/ha, visual injury, 0 to 100 scale (0 no effect, 100 complete control), approx. 10 d, read-out: Plant response rating, Galium
  pest or weed control at 500 g/ha: 60%
[8]; 125 g ai/ha, visual rating about 10 d after treatment, read-out: Kochia plant response rating (0 to 100 scale)
  pest or weed control at 125 g/ha: 30%
[8]; 500 g ai/ha, visual injury, 0 to 100 scale (0 no effect, 100 complete control), approx. 10 d, read-out: Plant response rating, Kochia
  pest or weed control at 500 g/ha: 60%
[9]; 125 g ai/ha, visual rating about 10 d after treatment, read-out: Barnyardgrass plant response rating (0 to 100 scale, 0 no effect, 100 complete control)
  pest or weed control at 125 g/ha: 100%
[9]; 500 g ai/ha, visual injury, 0 to 100 scale (0 no effect, 100 complete control), approx. 10 d, read-out: Plant response rating, Barnyardgrass
  pest or weed control at 500 g/ha: 100%
[10]; 125 g ai/ha, visual rating about 10 d after treatment, read-out: Blackgrass plant response rating (0 to 100 scale)
  pest or weed control at 125 g/ha: 20%
[10]; 500 g ai/ha, visual injury, 0 to 100 scale (0 no effect, 100 complete control), approx. 10 d, read-out: Plant response rating, Blackgrass
  pest or weed control at 500 g/ha: 30%
[11]; 125 g ai/ha, visual rating about 10 d after treatment, read-out: Corn plant response rating (0 to 100 scale)
  plant injury at 125 g/ha: 70%
[11]; 500 g ai/ha, visual injury, 0 to 100 scale (0 no effect, 100 complete control), approx. 10 d
  Corn plant response rating (crop injury, 0 = no effect, 100 = complete kill) at 500 g/ha: 70%
[12]; 125 g ai/ha, visual rating about 10 d after treatment, read-out: Foxtail, Giant plant response rating (0 to 100 scale)
  pest or weed control at 125 g/ha: 80%
[12]; 500 g ai/ha, visual injury, 0 to 100 scale (0 no effect, 100 complete control), approx. 10 d, read-out: Plant response rating, Foxtail, Giant
  pest or weed control at 500 g/ha: 80%
[13]; 125 g ai/ha, visual rating about 10 d after treatment, read-out: Pigweed plant response rating (0 to 100 scale)
  pest or weed control at 125 g/ha: 20%
[13]; 500 g ai/ha, visual injury, 0 to 100 scale (0 no effect, 100 complete control), approx. 10 d, read-out: Plant response rating, Pigweed
  pest or weed control at 500 g/ha: 50%
[14]; 125 g ai/ha, visual rating about 10 d after treatment, read-out: Ragweed plant response rating (0 to 100 scale)
  pest or weed control at 125 g/ha: 30%
[14]; 500 g ai/ha, visual injury, 0 to 100 scale (0 no effect, 100 complete control), approx. 10 d, read-out: Plant response rating, Ragweed
  pest or weed control at 500 g/ha: 60%
[15]; 125 g ai/ha, visual rating about 10 d after treatment, read-out: Ryegrass, Italian plant response rating (0 to 100 scale)
  pest or weed control at 125 g/ha: 30%
[15]; 500 g ai/ha, visual injury, 0 to 100 scale (0 no effect, 100 complete control), approx. 10 d, read-out: Plant response rating, Ryegrass, Italian
  pest or weed control at 500 g/ha: 30%
[16]; 125 g ai/ha, visual rating about 10 d after treatment, read-out: Wheat plant response rating (0 to 100 scale)
  plant injury at 125 g/ha: 30%
[16]; 500 g ai/ha, visual injury, 0 to 100 scale (0 no effect, 100 complete control), approx. 10 d, read-out: Plant response rating, Wheat
  plant injury at 500 g/ha: 50%
